Consider 22 molecules from patent US4594345A, “Methylflavone-8-carboxylates” (Nippon Shinyaku Co. Ltd., priority 1982, dated 1986).

One assay deals with SRS-A. Description: Anti-SRS-A action (SRS-A induced shrinkage of guinea pig ileus). To be noted: treated five minutes before SRS-A (20 units), 5 min; for SRS-A Inhibition Ratio % 10^-6 M: 1 µM; for SRS-A Inhibition Ratio % 10^-7 M: 0.1 µM. Also on record: species or system guinea pig (Hartley strain male). As to the method:
(§1) The effect of the compounds (I) of the present invention in the treatment of asthma and allergic diseases were evaluated by a passive cutaneous anaphylaxis assay (PCA) in rats and by measuring anti-SRS-A action using ileus of guinea pigs.
Anti-SRS-A action (An anti-action against slow reacting substance of anaphylaxie)
Hartley strain male guinea pigs (300 to 350 grams body weight) are killed and 1.0 to 1.5 cm of ileus is immediately excised from ileocecal parts and is suspended in 10 ml of Tyrode solution (95% O2 -5% CO2 saturation) containing 10^-7 g/ml of atropine and 10^-6 g/ml of pyrilamine. SRS-A (20 units) (the amount of SRS-A showing the same shrinkage as 5 ng of histamine is defined as one unit) prepared by using sensitized guinea pig lung is given to cause shrinkage there. Then antagonistic action of test compounds treated five minutes ago against the shrinkage is measured and recorded via isotonic transducer. [formula] in which A' is a height of shrinkage of SRS-A + test compound and A is that of SRS-A.

Assay [1] deals with passive cutaneous anaphylaxis (PCA). Description: Passive cutaneous anaphylaxis assay (PCA) in rats. In kind it is in vivo, rat (Wister strain). The following applies: oral 10 mg/kg, one hour before antigen; for inhibition in vivo at 10 mg/kg: Rattus norvegicus, po, 1 h, read-out: PCA Inhibition Ratio %. How it is done:
as §1
(i) Antiserum abundant in homocytotropic antibody is prepared by the same method as Tada and Okumura did (cf. Journal of Immunology, volume 106, page 1002, […]). Thus, one mg (calculated as an amount of protein) of DNP-As (2,4-dinitrophenyl-coupled ascaris extract) prepared by methods of Strejan and Campbell (Journal of Immunology, volume 98, page 893, 1971) and of Eisen (Journal of American Chemical Society, volume 85, page 4593, 1953) and […] pertussis vaccine are administered to each paw of Wister strain rats (180 to 200 grams body weights) by dividing the dose by four. Five days later, 0.5 mg of DNP-As is adminstered into muscle of back. Eight days later from the initial immunization, blood is taken from descending aorta under anesthetizing with ether, the resulting serum is stored at -80° C. and is melted before use.
(ii) Effect of tested compounds is investigated as follows:
Anti-serum obtained by the method (i) is diluted with physiological saline solution double by double successively and 0.05 ml of each diluted solution is administered into back of Wister strain rats (140 to 160 grams body weight) subcutaneously. After 72 hours, a solution of 2 mg (calculated as protein) of DNP-As and 2.5 mg of Evand Blue dissolved in 1 ml of physiological saline solution is administered intravenously at a dose of 5 ml/kg. After thirty minutes from antigen solution administration, the animals are killed and diameters of blue spots appeared at the place where antiserum is administered are measured. The PCA test is conducted by the same method as already described using a diluted solutions of antiserum which always show 10 mm or more of spot diameters and the effect of the test compounds is judged. Thus, antiserum diluted solutions are administered to two places in back. Test compounds are administered orally at the dose of 10 mg/kg one hour before administration of antigen solution. From the skin of reacted parts of killed animals, leaked or emitted dyestuff is extracted [cf. Baeck and Steinetz: J. Pharmacol. Exp. Ther., Vol. 131, page 400 (1961)] and the amount of the dyestuff is measured. The inhibition ratio is calculated by the following expression: [formula] in which R' is an amount of dyestuff in the group treated with the test compounds and A is that in the control group.

Regarding `CCCCN(CCCC)C(=O)c1cccc2c(=O)c(C)c(-c3ccc(C(C)C)cc3)oc12` [Example 49, 4'-isopropyl-3-methylflavone-8-carboxylic acid N,N-di-n-butylamide], in the assay with SRS-A, the “SRS-A Inhibition Ratio % 10^-6 M” value stood at 82.8% and the “SRS-A Inhibition Ratio % 10^-7 M” value amounted to 55.6%. For the same molecule, in assay [1], the inhibition in vivo at 10 mg/kg was 20%.

With `CCCCN(CC)C(=O)c1cccc2c(=O)c(C)c(-c3ccc(C(C)C)cc3)oc12` [Example 50, 4'-isopropyl-3-methylflavone-8-carboxylic acid N-n-butyl-N-ethylamide], in the assay with SRS-A, the “SRS-A Inhibition Ratio % 10^-6 M” value is 100% and the “SRS-A Inhibition Ratio % 10^-7 M” value amounted to 70.0%. Also, in assay [1], the inhibition in vivo at 10 mg/kg was determined as 21.4%.

As to `CCNC(=O)c1cccc2c(=O)c(C)c(-c3ccc(C(C)C)cc3)oc12` [Example 51, 4'-isopropyl-3-methylflavone-8-carboxylic acid N-ethylamide], in the assay with SRS-A, the “SRS-A Inhibition Ratio % 10^-6 M” value is reported as 75.0% and the “SRS-A Inhibition Ratio % 10^-7 M” value is 17.5%. Besides, in assay [1], the inhibition in vivo at 10 mg/kg is 19%.

Consider `CCCCCCNC(=O)c1cccc2c(=O)c(C)c(-c3ccc(C(C)C)cc3)oc12` [Example 52, 4'-isopropyl-3-methylflavone-8-carboxylic acid N-n-hexylamide], for which, in the assay on SRS-A, the “SRS-A Inhibition Ratio % 10^-6 M” value is on record as 66.1% and the “SRS-A Inhibition Ratio % 10^-7 M” value is on record as 20.7%. For the same molecule, the inhibition in vivo at 10 mg/kg in assay [1] was determined as 13.5%.

`Cc1c(-c2ccc(C(C)C)cc2)oc2c(C(=O)NC3CCCCC3)cccc2c1=O` [Example 53, 4'-isopropyl-3-methylflavone-8-carboxylic acid N-cyclohexylamide]: in the assay on SRS-A, the “SRS-A Inhibition Ratio % 10^-6 M” value was found to be 51.9% and the “SRS-A Inhibition Ratio % 10^-7 M” value turned out to be 40.0%. Besides, the inhibition in vivo at 10 mg/kg in assay [1] was determined as 10.3%.

On to `Cc1c(-c2ccc(C(C)C)cc2)oc2c(C(=O)N3CCCCC3)cccc2c1=O` [Example 54, 4'-isopropyl-3-methylflavone-8-carboxylic acid N,N-pentamethylene amide], for which, in the assay on SRS-A, the “SRS-A Inhibition Ratio % 10^-6 M” value is recorded as 69.0% and the “SRS-A Inhibition Ratio % 10^-7 M” value was 38.6%. Further, the inhibition in vivo at 10 mg/kg in assay [1] is 13%.

As to `CCOC(=O)c1cccc2c(=O)c(C)c(-c3ccc(C(C)(C)C)cc3)oc12` [Example 56, ethyl 4'-tertiary butyl-3-methylflavone-8-carboxylate], in the assay on SRS-A, the “SRS-A Inhibition Ratio % 10^-6 M” value is 44.9% and the “SRS-A Inhibition Ratio % 10^-7 M” value turned out to be 19.0%. In addition, the inhibition in vivo at 10 mg/kg in assay [1] came out at 20.2%.

Take `CCN(CC)C(=O)c1cccc2c(=O)c(C)c(-c3ccc(C(C)(C)C)cc3)oc12` [Example 57, 4'-tertiary butyl-3-methylflavone-8-carboxylic acid N,N-diethylamide]: in the assay with SRS-A, the “SRS-A Inhibition Ratio % 10^-6 M” value is 39.1% and the “SRS-A Inhibition Ratio % 10^-7 M” value was determined as 10.4%. For the same molecule, the inhibition in vivo at 10 mg/kg in assay [1] came to 19.1%.

With `CCCCCc1ccc(-c2oc3c(C(=O)OCC)cccc3c(=O)c2C)cc1` [Example 59, ethyl 3-methyl-4'-n-pentylflavone-8-carboxylate], in the assay with SRS-A, the “SRS-A Inhibition Ratio % 10^-6 M” value worked out at 38.1% and the “SRS-A Inhibition Ratio % 10^-7 M” value is 9.8%. Moreover, the inhibition in vivo at 10 mg/kg in assay [1] came to 19.4%.

In the case of `CCCCCc1ccc(-c2oc3c(C(=O)N(CC)CC)cccc3c(=O)c2C)cc1` [Example 60, 3-methyl-4'-n-pentylflavone-8-carboxylic acid N,N-diethylamide], in the assay on SRS-A, the “SRS-A Inhibition Ratio % 10^-6 M” value is on record as 100% and the “SRS-A Inhibition Ratio % 10^-7 M” value is listed as 44.9%. In addition, the inhibition in vivo at 10 mg/kg in assay [1] was found to be 13.4%.

Take `CCCCCc1ccc(-c2oc3c(C(=O)O)cccc3c(=O)c2C)cc1` [Example 61]: in the assay on SRS-A, the “SRS-A Inhibition Ratio % 10^-6 M” value amounted to 40.7% and the “SRS-A Inhibition Ratio % 10^-7 M” value was found to be 9.4%. Also, the “PCA Inhibition Ratio %” value in assay [1] (10 mg/kg) was found to be 22.7%.

For `CCOC(=O)c1cccc2c(=O)c(C)c(-c3ccccc3Cl)oc12` [Example 67, ethyl 2'-chloro-3-methylflavone-8-carboxylate], in the assay with SRS-A, the “SRS-A Inhibition Ratio % 10^-6 M” value was 100% and the “SRS-A Inhibition Ratio % 10^-7 M” value was 42.9%. In addition, the inhibition in vivo at 10 mg/kg in assay [1] was 19.8%.

On to `CCN(CC)C(=O)c1cccc2c(=O)c(C)c(-c3ccccc3Cl)oc12` [Example 68], for which, in the assay on SRS-A, the “SRS-A Inhibition Ratio % 10^-6 M” value turned out to be 55.3% and the “SRS-A Inhibition Ratio % 10^-7 M” value amounted to 9.8%. For the same molecule, the inhibition in vivo at 10 mg/kg in assay [1] stood at 21.1%.

Consider `Cc1c(-c2ccccc2Cl)oc2c(C(=O)OCCO)cccc2c1=O` [Example 69, beta-hydroxyethyl 2'-chloro-3-methylflavone-8-carboxylate], for which, in the assay with SRS-A, the “SRS-A Inhibition Ratio % 10^-6 M” value is listed as 55.3% and the “SRS-A Inhibition Ratio % 10^-7 M” value was determined as 9.8%. The inhibition in vivo at 10 mg/kg in assay [1] was 14.3%.

`CCOC(=O)c1cccc2c(=O)c(C)c(-c3ccc(Cl)cc3)oc12` [Example 71, ethyl 4'-chloro-3-methylflavone-8-carboxylate]: in the assay on SRS-A, the “SRS-A Inhibition Ratio % 10^-6 M” value is given as 10.3% and the “SRS-A Inhibition Ratio % 10^-7 M” value amounted to 6.0%. The inhibition in vivo at 10 mg/kg in assay [1] worked out at 36.9%.

With `CCN(CC)C(=O)c1cccc2c(=O)c(C)c(-c3ccc(Cl)cc3)oc12` [Example 72, 4'-chloro-3-methylflavone-8-carboxylic acid N,N-diethylamide], in the assay on SRS-A, the “SRS-A Inhibition Ratio % 10^-6 M” value was found to be 42.1% and the “SRS-A Inhibition Ratio % 10^-7 M” value was 7.5%. The inhibition in vivo at 10 mg/kg in assay [1] was found to be 16.3%.

As for `CCNC(=O)c1cccc2c(=O)c(C)c(-c3ccc(Cl)cc3)oc12` [Example 73, 4'-chloro-3-methylflavone-8-carboxylic acid N-ethylamide], in the assay on SRS-A, the “SRS-A Inhibition Ratio % 10^-6 M” value amounted to 29.4% and the “SRS-A Inhibition Ratio % 10^-7 M” value worked out at 6.2%. In addition, in assay [1], the inhibition in vivo at 10 mg/kg turned out to be 19.4%.

On to `Cc1c(-c2cc(Cl)ccc2Cl)oc2c(C(=O)O)cccc2c1=O` [Example 76, 2',5'-dichloro-3-methylflavone-8-carboxylic acid], for which, in the assay with SRS-A, the “SRS-A Inhibition Ratio % 10^-6 M” value turned out to be 65.2% and the “SRS-A Inhibition Ratio % 10^-7 M” value stood at 40.0%. In addition, the inhibition in vivo at 10 mg/kg in assay [1] was determined as 13.2%.

In the case of `CCOC(=O)c1cccc2c(=O)c(C)c(-c3cc(Cl)ccc3Cl)oc12` [Example 77, ethyl 2',5'-dichloro-3-methylflavone-8-carboxylate], in the assay with SRS-A, the “SRS-A Inhibition Ratio % 10^-6 M” value was 67.4% and the “SRS-A Inhibition Ratio % 10^-7 M” value was found to be 6.9%. Also, the inhibition in vivo at 10 mg/kg in assay [1] came to 16.3%.

Take `CCN(CC)C(=O)c1cccc2c(=O)c(C)c(-c3cc(Cl)ccc3Cl)oc12` [Example 78, 2',5'-dichloro-3-methylflavone-8-carboxylic acid N,N-diethylamide]: in the assay on SRS-A, the “SRS-A Inhibition Ratio % 10^-6 M” value was 79.3% and the “SRS-A Inhibition Ratio % 10^-7 M” value came to 5.6%. For the same molecule, the inhibition in vivo at 10 mg/kg in assay [1] worked out at 26.3%.

Consider `CCOC(=O)c1cccc2c(=O)c(C)c(-c3ccc(Cl)cc3Cl)oc12` [Example 80, ethyl 2',4'-dichloro-3-methylflavone-8-carboxylate], for which, in the assay with SRS-A, the “SRS-A Inhibition Ratio % 10^-6 M” value was 61.7% and the “SRS-A Inhibition Ratio % 10^-7 M” value is 17.6%. In addition, the inhibition in vivo at 10 mg/kg in assay [1] is 21.3%.

Turning to `CCN(CC)C(=O)c1cccc2c(=O)c(C)c(-c3ccc(Cl)cc3Cl)oc12` [Example 81, 2',4'-dichloro-3-methylflavone-8-carboxylic acid N,N-diethylamide], in the assay with SRS-A, the “SRS-A Inhibition Ratio % 10^-6 M” value stood at 57.1% and the “SRS-A Inhibition Ratio % 10^-7 M” value came out at 9.8%. Further, the inhibition in vivo at 10 mg/kg in assay [1] amounted to 20.4%.
